pIC50: −log10 of the molar value. The source made the active and inactive calls. No cut-off for these calls is given here.
Assays:
[1] = target: Glycogen synthase kinase-3 beta (Homo sapiens, UniProt P49841); assay: Inhibition of recombinant human N-terminal His-tagged GSK-3beta expressed in Escherichia coli using glycogen synthase-2 as substrate and ATP measured after 30 mins by Kinase-Glo luminescent kinase assay
Mus musculus [2] = assay: Antidepressant activity in Swiss albino mouse assessed as reduction in duration of immobility at 50 mg/kg, po dosed 1 hr before test measured after 6 mins by forced swim test relative to control; type: functional, organism-based
Mus musculus [3] = assay: Antidepressant activity in Swiss albino mouse assessed as duration of immobility at 50 mg/kg, po dosed 1 hr before test measured after 6 mins by tail suspension test (reference value: 183 sec)

Sequence of Glycogen synthase kinase-3 beta (P49841 whole entry): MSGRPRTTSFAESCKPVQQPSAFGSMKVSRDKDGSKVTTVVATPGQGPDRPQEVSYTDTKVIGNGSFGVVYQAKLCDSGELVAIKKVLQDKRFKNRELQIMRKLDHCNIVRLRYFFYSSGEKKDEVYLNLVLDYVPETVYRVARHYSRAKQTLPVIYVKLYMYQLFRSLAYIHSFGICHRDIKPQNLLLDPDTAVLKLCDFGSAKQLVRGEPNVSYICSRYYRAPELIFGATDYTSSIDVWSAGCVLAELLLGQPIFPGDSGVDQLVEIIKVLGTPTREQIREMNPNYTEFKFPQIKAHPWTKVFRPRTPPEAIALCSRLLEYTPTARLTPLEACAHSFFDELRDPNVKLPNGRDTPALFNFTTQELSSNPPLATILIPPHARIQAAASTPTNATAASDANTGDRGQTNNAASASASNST

Compound: Cc1nc2ccccc2n1CC(=O)NNC(=O)C(=O)c1c[nH]c2ccccc12
- pIC50 [1]: 7.14
- Activity (Mus musculus [2]): Active
- Time (Mus musculus [3]): 105 s

Compound: CCOc1ccc(Nc2nnc(Cn3c(C)nc4ccccc43)s2)cc1
- pIC50 [1]: 6.53

Compound: Cc1nc2ccccc2n1Cc1nnc(Nc2ccc(Br)cc2)s1
- pIC50 [1]: 6.76

Compound: COc1ccccc1Nc1nnc(Cn2c(C)nc3ccccc32)s1
- pIC50 [1]: 6.74

Compound: COc1ccc(C(=O)CCC(=O)NNC(=O)Cn2c(C)nc3ccccc32)cc1
- pIC50 [1]: 6.25

Compound: Cc1nc2ccccc2n1Cc1nnc(Nc2ccccc2F)s1
- pIC50 [1]: 7.12
- Activity (Mus musculus [2]): Active
- Time (Mus musculus [3]): 120 s

Compound: Cc1nc2ccccc2n1CC(=O)NNC(=O)Cc1cc2ccccc2[nH]1
- pIC50 [1]: 6.87

Compound: Cc1nc2ccccc2n1CC(=O)NNC(=O)Cc1cccc2ccccc12
- pIC50 [1]: 6.80

Compound: CCCCNc1nnc(Cn2c(C)nc3ccccc32)s1
- pIC50 [1]: 6.24

Compound: Cc1nc2ccccc2n1Cc1nnc(Nc2ccccc2Cl)s1
- pIC50 [1]: 6.91

Compound: COc1ccc(Nc2nnc(Cn3c(C)nc4ccccc43)s2)cc1
- pIC50 [1]: 6.82

Compound: Cc1ccccc1CC(=O)NNC(=O)Cn1c(C)nc2ccccc21
- pIC50 [1]: 7.04
- Time (Mus musculus [3]): 168 s

Compound: Cc1nc2ccccc2n1CC(=O)NNC(=O)c1c[nH]c2ccccc12
- pIC50 [1]: 6.83

Compound: Cc1nc2ccccc2n1Cc1nnc(Nc2ccc([N+](=O)[O-])cc2)s1
- pIC50 [1]: 6.97
- Time (Mus musculus [3]): 174 s

Compound: Cc1nc2ccccc2n1Cc1nnc(Nc2ccc(F)cc2)s1
- pIC50 [1]: 6.87

Compound: Cc1nc2ccccc2n1CC(=O)NNC(=O)CCC(=O)c1ccc(Oc2ccccc2)cc1
- pIC50 [1]: 7.10
- Activity (Mus musculus [2]): Active
- Time (Mus musculus [3]): 135 s

Compound: Cc1nc2ccccc2n1CC(=O)NNC(=O)c1ccc[nH]1
- pIC50 [1]: 6.91

Compound: Cc1nc2ccccc2n1Cc1nnc(Nc2ccccc2Br)s1
- pIC50 [1]: 6.72

Compound: COc1ccc(CC(=O)NNC(=O)Cn2c(C)nc3ccccc32)cc1
- pIC50 [1]: 6.42

Compound: CNCCC(Oc1ccc(C(F)(F)F)cc1)c1ccccc1 (centres undefined) [FLUOXETINE]
- Time (Mus musculus [3]): 153 s

Compound: Cc1nc2ccccc2n1Cc1nnc(Nc2ccccc2)s1
- pIC50 [1]: 6.80

Compound: Cc1nc2ccccc2n1Cc1nnc(Nc2ccc(Cl)cc2)s1
- pIC50 [1]: 6.84

Compound: Cc1nc2ccccc2n1CC(=O)NNC(=O)Cc1ccc([N+](=O)[O-])cc1
- pIC50 [1]: 6.69

Compound: Cc1nc2ccccc2n1CC(=O)NNC(=O)Cc1ccccc1
- pIC50 [1]: 6.98

Compound: Cc1nc2ccccc2n1CC(=O)NNC(=O)Cc1ccc(Cl)cc1
- pIC50 [1]: 6.88

Compound: Cc1nc2ccccc2n1Cc1nnc(NC2CCCCC2)s1
- pIC50 [1]: 6.39
